# Data from patent publication US7235267B1, “Brain cell or nerve cell-protecting agents comprising medicinal ginseng” (priority 1999, dated 2007).
# Entries after “also recorded” stand apart in the source; their conditions may differ. Where two headings read alike, the source gives them in different places.
# Tests used:
# [1] = tested on: co-cultures of nerve cells (neurons) and oligodendrocytes; assay: Co-culture of nerve cells and oligodendrocytes, Western blotting of MAP2 and CNPase; type: cell-based, rat
# Excerpt: As generally known, in myelinated nerve fibers within brain and nervous tissues, oligodendrocytes form myelin by ensheathing axons of neurons repeatedly. Further, in unmyelinated nerve fibers, processes of oligodendrocytes surround axons of neurons only once. In the brain and nervous tissues, nerve cells (neurons) and oligodendrocytes are at any time holding close positional relationship. The present inventors performed co-cultures of nerve cells and oligodendrocytes to investigate whether or not ginsenoside Rb1 promotes survival of both cells. For that purpose, nerve cells (neurons) were isolated from cerebral cortices of fetal rats at gestational day 17. The mixed brain cell culture was initiated to isolate oligodendrocytes by using the forebrain of newborn rats. Fifty thousands of oligodendrocytes and 500,000 nerve cells were cocultured. To this culture system was added 1 fg/ml to 10 pg/ml ginsenoside Rb1 in DMEM containing 1% fetal calf serum, and the mixed cells were cultured for 5 days. Subsequently, samples for electrophoresis were prepared and contents of the neuron-specific protein MAP2 (microtubule-associated protein 2) and the oligodendrocyte-specific protein CNPase (cyclic nucleotide […]) in the culture well were assayed by means of Western blotting. […]
# Bcl-xL = Bcl-xL expression in primary cultured oligodendrocytes (RT-PCR, immunoblotting); type: cell-based, rat
# Protocol: In order to investigate whether ginsenoside Rb1 enhances the expression of Bcl-xL in oligodendrocytes or not, for example, ginsenoside Rb1 at the concentrations from 1 fg/ml to 10 pg/ml was added to the primary cultured rat oligodendrocytes. After culture for 6 hours, total RNA was extracted and Bcl-xL mRNA was assayed by RT-PCR. β-actin mRNA was used as an internal standard of RT-PCR. Further, a part of oligodendrocytes was used as a sample for SDS electrophoresis after treatment with ginsenoside Rb1, and anti-apoptotic factor Bcl-xL in the culture well was examined by immunoblotting (Western blotting). Oligodendrocytes were isolated from the mixed brain cell culture by using the forebrain of newborn rats.
# In order to investigate whether ginsenoside Rb1 enhances the expression of Bcl-xL in oligodendrocytes or not, for example, ginsenoside Rb1 at the concentration from 1 fg/ml to 10 pg/ml was added to the primary cultured rat oligodendrocytes. After culture for 6 hours, Total RNA was extracted and Bcl-xL mRNA was assayed by RT-PCR. β-actin mRNA was used as an internal standard of RT-PCR. Further, a part of oligodendrocytes was used as a sample for SDS electrophoresis after treating with ginsenoside Rb1, and the amount of anti-apoptotic factor Bcl-xL in the culture well was examined by immunoblotting (Western blotting). The mixed brain cell culture was initiated to isolate oligodendrocytes by using the forebrain of newborn rats.
# [2] = tested on: primary cultured myocardial cells; assay: Myocardial cell survival in glucose-free, serum-free medium (α-actinin immunoblotting); type: cell-based, rat
# Protocol: We have investigated whether or not ginsenoside Rb1 could actually suppress myocardial cell death in the concentration range for increasing the expression of Bcl-xL protein. For that purpose, for example, the protective effect of ginsenoside Rb1 on myocardial cells was examined when the primary cultured myocardial cells were cultured without addition of glucose. Ginsenoside Rb1 in the concentration range from 0 to 1 ng/ml was added to myocardial cells in serum-free DMEM without containing glucose, and the myocardial cells were cultured for 4 or 5 days. Subsequently, the samples for electrophoresis were prepared, and immunoblotting (Western blotting) was performed by using anti-striated muscle specific α-actinin antibody.
# We (the present inventors) investigated whether ginsenoside Rb1 could actually suppress myocardial cell death in the concentration range for increasing the expression of Bcl-xL protein or not. For that purpose, for example, the protective effect of ginsenoside Rb1 on myocardial cells was examined when the primary cultured myocardial cells were cultured without addition of glucose. Ginsenoside Rb1 in the concentration range from 0 to 1 ng/ml was added to serum-free DMEM without containing glucose, and myocardial cells were cultured for 4 or 5 days. Subsequently, the sample for electrophoresis was prepared, and immunoblotting (Western blotting) was performed by using anti-striated muscle specific α-actinin antibody. […] Statistical analyses were conducted by ANOVA+Scheffe's post hoc test.
# ischemic brain = assay: Oral administration of ginsenoside Rb1 per se, neuroprotective action; type: in vivo
# [3] = tested on: gerbils with transient forebrain ischemia (hippocampal CA1 neurons); settings: cited from earlier work
# [4] = tested on: SH-SP rats with MCA permanent occlusion; settings: cited from earlier work
# [5] = intravenous administration (Saito et al. 1980); cited from earlier work
compound,measurement,setting,value
CC(C)=CCC[C@](C)(O[C@@H]1O[C@H](CO[C@@H]2O[C@H](CO)[C@@H](O)[C@H](O)[C@H]2O)[C@@H](O)[C@H](O)[C@H]1O)[C@H]1CC[C@]2(C)[C@@H]1[C@H](O)C[C@@H]1[C@@]3(C)CC[C@H](O[C@@H]4O[C@H](CO)[C@@H](O)[C@H](O)[C@H]4O[C@@H]4O[C@H](CO)[C@@H](O)[C@H](O)[C@H]4O)C(C)(C)[C@@H]3CC[C@]12C [ginsenoside Rb1],band of MAP2 and band of CNPase (survival of nerve cells and oligodendrocytes),"[1]; 1 fg/ml to 100 fg/ml, 5 days, vs non-added and 10^4 fg/ml groups",obviously intense
same,concentrations that made intense the MAP2 and CNPase bands,[1]; FIG. 22,1 to 100 fg/mL
same,expression of Bcl-xL mRNA in oligodendrocytes,"Bcl-xL; 100 fg/ml, 6 hours, RT-PCR",obviously enhanced
same,concentrations increasing Bcl-xL protein expression in oligodendrocytes,Bcl-xL; FIG. 23,1 to 100 fg/mL
same,Bcl-xL protein in oligodendrocytes,Bcl-xL; immunoblotting after ginsenoside Rb1 addition,increased
same,protective effect on myocardial cells,"[2]; 0.01 fg/ml, n=3",significant effects are not noted
same,striated muscle-specific α-actinin by immunoblotting (myocardial cell survival),"[2]; 1 fg/ml to 10^4 fg/ml, glucose-free serum-free medium, 4-5 days",significantly detected
same,concentrations promoting survival of myocardial cells,[2]; FIG. 26,1-10^4 fg/ml
same,neuroprotective action / protective action on the ischemic brain,ischemic brain,did not show protective effects; also recorded: did not exhibit neuroprotective action; also recorded: did not exhibit any protective action
same,delayed neuronal death and learning disability,[3]; intracerebroventricular infusion immediately after 3 or 3.5 minute occlusion,suppressed
same,delayed neuronal death and learning disability,[3]; intraperitoneal 10 or 20 mg/kg once a day for one week in advance of 5-minute occlusion,significantly prevent
same,nerve cells in the hippocampal CA1 area rescued,[3]; intraperitoneal 10 or 20 mg/kg/day before cerebral ischemia,approximately 30%
same,effect on delayed neuronal death,[3]; intraperitoneal immediately after 3- or 5-minute occlusion of common carotid arteries,no effect
same,cerebral infarction (infarcted area in the cerebral cortex),[4]; intracerebroventricular administration after permanent MCA occlusion,significant reduction
same,secondary lesion (degeneration) of the thalamus,[4]; intravenous 6 or 60 μg/day,significantly inhibits
same,mean ratio of cerebrocortical infarction compared with saline group,[4]; intravenous ginsenoside Rb1 (prior applications),≤ 50%
same,cerebral vessels destroyed after MCA permanent occlusion,[4]; intravenous infusion for 28 days,regenerated and reconstructed
same,cerebral infarct area relative to non-administered group,[4]; repetitive or continuous intravenous 6 μg or 60 μg/day,about ¼
same,volume/size of cerebral infarct lesion relative to saline (non-administered) group,[4]; repetitive or continuous intravenous 6 or 60 μg/day for 28 days after MCA permanent occlusion (prior applications),about ¼
same,reduction of the volume of the cerebral infarct lesions vs control group,[4]; repetitive or continuous intravenous low doses after permanent MCA occlusion,~75%
same,LD50,[5],approximately 448 mg/kg
